Measured values: EPA's ToxValDB 9.5 (doi:10.2903/j.efsa.2016.4609)
Converted amounts (≈) assume the structure as drawn.

Experiments:
Oryctolagus sp. = details: developmental; development
Rattus norvegicus = details: for NOAEL: gavage
Apis mellifera = details: acute, duration: 48 hours, mortality
Ictalurus punctatus = details: acute; duration: 96 hours; mortality
Neomysis kadiakensis = details: chronic/long-term; duration: 28 days; reproduction
Pimephales promelas = details: chronic/long-term; duration: 56 days; mortality
Tagia sp. = details: chronic/long-term; mortality
[1] = chronic, duration: 2 years, histopathology: neoplastic

Compound | LOAEL (Oryctolagus sp.) | LOAEL (Rattus norvegicus; [1]) | LD50 (Apis mellifera; dermal) | LD50 (Apis mellifera; oral, unspecified) | LD50 (Colinus virginianus; acute, oral, mortality) | NOEL (Colinus virginianus; reproduction developmental) | LC50 (Ictalurus punctatus) | NOEC (Neomysis kadiakensis) | NOEC (Pimephales promelas) | LD50 (Rattus norvegicus; acute, oral, mortality) | LOAEL (Rattus norvegicus; reproduction developmental, reproduction) | NOEC (Tagia sp.) | NOAEL (Rattus norvegicus; short-term, duration: 28 days, oral, Wistar) | NOAEL (Rattus norvegicus; subchronic, duration: 90 days, oral, hematological)
NC(=O)NC(=O)Nc1cc(Cl)c(O)c(Cl)c1 [N-(3,5-Dichloro-4-hydroxyphenyl)-2-imidodicarbonic diamide] | 20 mg/kg-day | 6.1 mg/kg-day | – | – | – | – | – | – | – | – | – | – | – | –
CC(C)NC(=O)N1CC(=O)N(c2cc(Cl)cc(Cl)c2)C1=O | 20 mg/kg-day | 6.1 mg/kg-day | > 100 µg/piece | > 100 µg/piece | 3780 mg/kg-day | 22.3 mg/kg-day | 3.1 µg/mL (≈ 9.39 µM) | 0.0075 mg/L | 0.0731 mg/L | > 2000 mg/kg-day | 26.9 mg/kg-day | 1000 mg/kg | – | –
NC(CCC(=O)Nc1cc(Cl)cc(Cl)c1)C(=O)O (stereo unspecified) [N-(3,5-Dichlorophenyl)glutamine] | – | – | – | – | – | – | – | – | – | – | – | – | 7.5 mg/kg-day | 1 mg/kg-day
